According to the NIST ThermoML archive (doi:10.1021/je050440b):
Numbers after ± are expanded uncertainties.

Test: activity coefficient (dimensionless); of the first substance listed, at infinite dilution; xn = mol fraction of the nth substance listed
Conditions: Liquid, Chromatography, x1 = 0

Compound: CCCCCCO [hexan-1-ol] + CCCC[N+](C)(C)C.O=S(=O)([N-]S(=O)(=O)C(F)(F)F)C(F)(F)F
- activity coefficient (343.65 K): 4.02 ± 0.27
- activity coefficient (354.05 K): 3.58 ± 0.24
- activity coefficient (364.45 K): 3.24 ± 0.22
- activity coefficient (385.55 K): 2.67 ± 0.18

Compound: CCCCCC=O [hexanal] + CCCC[N+](C)(C)C.O=S(=O)([N-]S(=O)(=O)C(F)(F)F)C(F)(F)F
- activity coefficient (322.75 K): 1.92 ± 0.13
- activity coefficient (333.25 K): 1.9 ± 0.13
- activity coefficient (343.55 K): 1.88 ± 0.13
- activity coefficient (354.15 K): 1.85 ± 0.12
- activity coefficient (364.65 K): 1.84 ± 0.12

Compound: CCCCCC [hexane] + CCCC[N+](C)(C)C.O=S(=O)([N-]S(=O)(=O)C(F)(F)F)C(F)(F)F
- activity coefficient (301.85 K): 19.4 ± 1.3
- activity coefficient (312.35 K): 18.1 ± 1.2
- activity coefficient (322.85 K): 17.6 ± 1.2
- activity coefficient (333.35 K): 16.3 ± 1.1

Compound: CO [methanol] + CCCC[N+](C)(C)C.O=S(=O)([N-]S(=O)(=O)C(F)(F)F)C(F)(F)F
- activity coefficient (303.95 K): 1.55 ± 0.1
- activity coefficient (312.05 K): 1.42 ± 0.09
- activity coefficient (333.25 K): 1.15 ± 0.07
- activity coefficient (343.65 K): 1.02 ± 0.06

Compound: CCCC(=O)OC [methyl butanoate] + CCCC[N+](C)(C)C.O=S(=O)([N-]S(=O)(=O)C(F)(F)F)C(F)(F)F
- activity coefficient (311.65 K): 1.31 ± 0.09
- activity coefficient (333.15 K): 1.26 ± 0.08
- activity coefficient (364.45 K): 1.2 ± 0.08

Compound: CCCCCCC(=O)OC [methyl heptanoate] + CCCC[N+](C)(C)C.O=S(=O)([N-]S(=O)(=O)C(F)(F)F)C(F)(F)F
- activity coefficient (343.55 K): 3.18 ± 0.22
- activity coefficient (354.05 K): 3.01 ± 0.2
- activity coefficient (364.55 K): 2.81 ± 0.19
- activity coefficient (374.95 K): 2.64 ± 0.18
- activity coefficient (385.45 K): 2.43 ± 0.17

Compound: CCCCCC(=O)OC [methyl hexanoate] + CCCC[N+](C)(C)C.O=S(=O)([N-]S(=O)(=O)C(F)(F)F)C(F)(F)F
- activity coefficient (343.65 K): 2.43 ± 0.17
- activity coefficient (354.05 K): 2.33 ± 0.16
- activity coefficient (364.55 K): 2.19 ± 0.15
- activity coefficient (374.95 K): 2.08 ± 0.14

Compound: CCCCC(=O)OC [methyl pentanoate] + CCCC[N+](C)(C)C.O=S(=O)([N-]S(=O)(=O)C(F)(F)F)C(F)(F)F
- activity coefficient (322.75 K): 1.66 ± 0.11
- activity coefficient (333.15 K): 1.63 ± 0.11
- activity coefficient (364.55 K): 1.44 ± 0.09
- activity coefficient (374.95 K): 1.33 ± 0.09

Compound: CCC(=O)OC [methyl propanoate] + CCCC[N+](C)(C)C.O=S(=O)([N-]S(=O)(=O)C(F)(F)F)C(F)(F)F
- activity coefficient (311.65 K): 0.94 ± 0.06
- activity coefficient (333.15 K): 0.92 ± 0.06
- activity coefficient (343.75 K): 0.91 ± 0.06

Compound: CCCCCCCCC [nonane] + CCCC[N+](C)(C)C.O=S(=O)([N-]S(=O)(=O)C(F)(F)F)C(F)(F)F
- activity coefficient (301.65 K): 67.5 ± 4.6
- activity coefficient (312.15 K): 59.8 ± 4.1
- activity coefficient (322.75 K): 52.6 ± 3.6
- activity coefficient (333.25 K): 47.3 ± 3.2
- activity coefficient (343.65 K): 43.2 ± 3
- activity coefficient (354.05 K): 39 ± 2.7
- activity coefficient (364.55 K): 36 ± 2.5
- activity coefficient (374.95 K): 32.3 ± 2.2

Compound: C=CCCCCCC [oct-1-ene] + CCCC[N+](C)(C)C.O=S(=O)([N-]S(=O)(=O)C(F)(F)F)C(F)(F)F
- activity coefficient (306.75 K): 22.9 ± 1.6
- activity coefficient (312.98 K): 22 ± 1.5
- activity coefficient (322.55 K): 20.4 ± 1.4
- activity coefficient (333.25 K): 19 ± 1.3
- activity coefficient (343.65 K): 17.2 ± 1.2
- activity coefficient (354.05 K): 16.2 ± 1.1
- activity coefficient (364.55 K): 15.1 ± 1

Compound: CCCCCCCC=O [octanal] + CCCC[N+](C)(C)C.O=S(=O)([N-]S(=O)(=O)C(F)(F)F)C(F)(F)F
- activity coefficient (364.64 K): 3.53 ± 0.24
- activity coefficient (374.95 K): 3.48 ± 0.24
- activity coefficient (385.45 K): 3.44 ± 0.23
- activity coefficient (395.95 K): 3.37 ± 0.23

Compound: CCCCCCCC [octane] + CCCC[N+](C)(C)C.O=S(=O)([N-]S(=O)(=O)C(F)(F)F)C(F)(F)F
- activity coefficient (301.62 K): 45.4 ± 3.1
- activity coefficient (312.15 K): 41 ± 2.8
- activity coefficient (322.75 K): 37.2 ± 2.5
- activity coefficient (333.25 K): 34.1 ± 2.3

Compound: CCCCCO [pentan-1-ol] + CCCC[N+](C)(C)C.O=S(=O)([N-]S(=O)(=O)C(F)(F)F)C(F)(F)F
- activity coefficient (322.85 K): 3.85 ± 0.26
- activity coefficient (333.15 K): 3.39 ± 0.23
- activity coefficient (343.65 K): 3.01 ± 0.2
- activity coefficient (354.05 K): 2.72 ± 0.19
- activity coefficient (364.45 K): 2.45 ± 0.17

Compound: CCCCC=O [pentanal] + CCCC[N+](C)(C)C.O=S(=O)([N-]S(=O)(=O)C(F)(F)F)C(F)(F)F
- activity coefficient (301.75 K): 1.71 ± 0.11
- activity coefficient (312.25 K): 1.65 ± 0.11
- activity coefficient (322.75 K): 1.62 ± 0.11
- activity coefficient (333.25 K): 1.57 ± 0.1
- activity coefficient (343.55 K): 1.5 ± 0.1
- activity coefficient (354.15 K): 1.46 ± 0.1

Compound: CCCCC [pentane] + CCCC[N+](C)(C)C.O=S(=O)([N-]S(=O)(=O)C(F)(F)F)C(F)(F)F
- activity coefficient (301.85 K): 13.7 ± 0.93
- activity coefficient (322.85 K): 13.9 ± 0.95

Compound: CCCCCc1ccccc1 [pentylbenzene] + CCCC[N+](C)(C)C.O=S(=O)([N-]S(=O)(=O)C(F)(F)F)C(F)(F)F
- activity coefficient (354.05 K): 7.92 ± 0.54
- activity coefficient (364.45 K): 7.69 ± 0.52
- activity coefficient (374.95 K): 7.36 ± 0.5
- activity coefficient (385.45 K): 7.07 ± 0.48

Compound: CCCO [propan-1-ol] + CCCC[N+](C)(C)C.O=S(=O)([N-]S(=O)(=O)C(F)(F)F)C(F)(F)F
- activity coefficient (301.75 K): 2.76 ± 0.19
- activity coefficient (312.15 K): 2.43 ± 0.17
- activity coefficient (322.85 K): 2.14 ± 0.15
- activity coefficient (333.35 K): 1.9 ± 0.13

Compound: CC(C)O [propan-2-ol] + CCCC[N+](C)(C)C.O=S(=O)([N-]S(=O)(=O)C(F)(F)F)C(F)(F)F
- activity coefficient (302.55 K): 2.4 ± 0.16
- activity coefficient (312.15 K): 2.14 ± 0.15
- activity coefficient (322.85 K): 1.89 ± 0.13
- activity coefficient (333.35 K): 1.67 ± 0.11
- activity coefficient (343.65 K): 1.53 ± 0.1
- activity coefficient (354.05 K): 1.37 ± 0.09

Compound: CCC=O [propanal] + CCCC[N+](C)(C)C.O=S(=O)([N-]S(=O)(=O)C(F)(F)F)C(F)(F)F
- activity coefficient (301.65 K): 0.58 ± 0.04
- activity coefficient (312.25 K): 0.57 ± 0.04
- activity coefficient (322.75 K): 0.54 ± 0.04
- activity coefficient (333.25 K): 0.53 ± 0.04
- activity coefficient (343.55 K): 0.52 ± 0.04

Compound: CCCc1ccccc1 [propylbenzene] + CCCC[N+](C)(C)C.O=S(=O)([N-]S(=O)(=O)C(F)(F)F)C(F)(F)F
- activity coefficient (333.25 K): 3.95 ± 0.27
- activity coefficient (343.65 K): 3.86 ± 0.26
- activity coefficient (354.05 K): 3.79 ± 0.26
- activity coefficient (364.45 K): 3.69 ± 0.25

Compound: Cc1ccccc1 [toluene] + CCCC[N+](C)(C)C.O=S(=O)([N-]S(=O)(=O)C(F)(F)F)C(F)(F)F
- activity coefficient (322.75 K): 1.73 ± 0.12
- activity coefficient (333.25 K): 1.71 ± 0.11
- activity coefficient (343.65 K): 1.7 ± 0.11
- activity coefficient (364.45 K): 1.68 ± 0.11

Compound: ClC(Cl)Cl [trichloromethane] + CCCC[N+](C)(C)C.O=S(=O)([N-]S(=O)(=O)C(F)(F)F)C(F)(F)F
- activity coefficient (301.75 K): 1.03 ± 0.06
- activity coefficient (312.15 K): 1.04 ± 0.07
- activity coefficient (333.25 K): 1.04 ± 0.07

Compound: CCCCCCCCCCC [undecane] + CCCC[N+](C)(C)C.O=S(=O)([N-]S(=O)(=O)C(F)(F)F)C(F)(F)F
- activity coefficient (333.25 K): 94.4 ± 6.5
- activity coefficient (343.65 K): 83.9 ± 5.8
- activity coefficient (354.05 K): 73.3 ± 5
- activity coefficient (364.55 K): 66.3 ± 4.5
- activity coefficient (374.95 K): 56 ± 3.8
